# Data published in publication PMC9090415, “Discovery of small molecule inhibitors of Plasmodium falciparum apicoplast DNA polymerase” (Journal of Enzyme Inhibition and Medicinal Chemistry, 2022).
# Molecular target: P. falciparum apicoplast DNA polymerase (Pf-apPOL) (Plasmodium falciparum, UniProt Q8ILY1)
# Assay: Fluorescence-based high-throughput DNA polymerase assay (molecular beacon), primary screen and dose-response
# Type: biochemical
# Details: for DNA Pol: 90 min, 10 µM
# Procedure: The HT assay employs a molecular beacon, a stem-loop DNA template with a Cy3 dye and the Black Hole Quencher on the 3′ and 5′ ends of the DNA, respectively. Pf-apPOL concentration is based on a calculated absorptivity of ε280 = 56750 M^−1 cm^−1. Reactions were carried out at 25 °C, using Corning 3575 […] (well-volume, 20 µL). Assays testing for compound inhibition composed of reaction buffer (pH 7.9 in 50 mM potassium acetate, 20 mM Tris-acetate and 10 mM magnesium acetate), Pf-apPOL (20 nM), DNA substrate (20 nM), dNTPs (6 µM), and compound (10 µM in DMSO). The DNA and nucleotide substrates (dNTPs) were at concentrations of 20 nM and 6 µM, respectively, in the assay. Pf-apPOL was incubated in the reaction buffer with dNTPs and the compound of interest (10 µM, in the assay) at 25 °C for 10 min. The DNA substrate was then added and the reaction was allowed to proceed for 90 min at 25 °C.
# Each assay plate contained 16 negative controls (no Pf-apPOL, DMSO present) and 16 positive controls (Pf-apPOL present, no DMSO). The fluorescence of each well was determined using a BioTek Synergy Neo fluorescence plate reader using excitation and emission wavelengths of 555 and 570 nm, respectively.
# In the above, Min is the average of fluorescence emission of the negative controls (substrate only), Max the average fluorescence emission from the positive controls (enzyme + substrate), and Test the emission from the assays in the presence of compounds (enzyme + compound + substrates). […] […] The IC50 of each compound was determined using Equation (2): (2) IC50= Vmax/(1+ (I/IC50)^n)
# In the above, n measures cooperativity, with n > 1 indicating synergistic binding of more than a single molecule of the compound.
# To identify apPOL inhibitors we utilised our previously developed high-throughput DNA polymerase assay. The HT assay is based on a molecular beacon DNA template that forms a stem-loop with a Cy3 dye and the Black Hole Quencher on the 3′ and 5′ ends of the DNA, respectively. DNA polymerase activity extends an annealed primer through the stem region, displacing the fluorophore from the quencher, thereby increasing its fluorescence (Figure 1(A)). The assay accurately recapitulates the kinetic behaviour of apPOL, as measured through more conventional low-throughput gel-based assays. The Z′ factor for the assay described here was 0.9 across all plates (data not shown).
# Figure 1. High-throughput screening. (A) The fluorescent-based DNA polymerase assay used to screen the compound libraries. The DNA template strand is a hairpin loop with a primer annealed to the loop. The 3’ end of the primer is 11 bases away from the 6 bp duplex. Strand displacement activity of the DNA polymerase separates the Cy3 dye from the Black hole quencher leading to an increase in fluorescent signal. (B) The high-throughput assay workflow. The DNA polymerase is incubated with […] compound for 10 min prior to addition of the hairpin substrate. The reaction is quenched at 3 different time points and the fluorescent signal is measured and % inhibition is determined using the provided equation.
# Chain of P. falciparum apicoplast DNA polymerase (Pf-apPOL) (Q8ILY1 entry or part of it): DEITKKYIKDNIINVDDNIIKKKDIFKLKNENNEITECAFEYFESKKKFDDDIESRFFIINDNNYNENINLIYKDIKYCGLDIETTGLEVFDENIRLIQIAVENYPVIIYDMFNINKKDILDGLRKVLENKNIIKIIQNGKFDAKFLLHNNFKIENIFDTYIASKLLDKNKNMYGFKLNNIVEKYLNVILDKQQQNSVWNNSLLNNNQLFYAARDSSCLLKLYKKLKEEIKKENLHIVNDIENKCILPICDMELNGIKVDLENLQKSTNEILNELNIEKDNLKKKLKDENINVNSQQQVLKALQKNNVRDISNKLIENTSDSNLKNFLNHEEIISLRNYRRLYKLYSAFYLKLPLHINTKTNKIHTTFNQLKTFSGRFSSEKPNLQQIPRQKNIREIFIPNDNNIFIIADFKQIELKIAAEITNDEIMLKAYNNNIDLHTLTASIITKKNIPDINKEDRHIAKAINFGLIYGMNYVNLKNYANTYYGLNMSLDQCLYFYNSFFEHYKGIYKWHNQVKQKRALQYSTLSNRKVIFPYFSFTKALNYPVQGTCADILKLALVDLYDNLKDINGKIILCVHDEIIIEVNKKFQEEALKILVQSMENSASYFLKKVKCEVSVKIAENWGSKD
compound,measurement,setting,value
"C=CC1=C(C)c2cc3[nH]c(cc4nc(cc5[nH]c(cc1n2)c(C)c5CCC(=O)O)C(CCC(=O)O)=C4C)c(C)c3C=C [Molecule 91, C=CC1=C(C)/C/2=C/c3[nH]c(c(c3C=C)C)/C=C/3\N=C(/C=c/4\[nH]/c(=C\C1=N2)/c(C)c4CCC(=O)O)C(=C3C)CCC(=O)O]",DNA Pol,'DNA Pol' of the 186 hits list (screen value),102
same,% inhibition Apo pol 10',"DRC-1, conc 2.5",61.8295%
same,% inhibition Apo pol 10',"DRC-1, conc 5",90.2247%
same,% inhibition Apo pol 10',"DRC-1, conc 10",94.5739%
same,% inhibition Apo pol 10',"DRC-1, conc 20",93.6963%
same,% inhibition Apo pol 10',"DRC-1, conc 40",92.3128%
same,% inhibition Apo pol 10',"DRC-1, conc 80",90.9627%
same,% inhibition Apol 90',"DRC-1, 90', conc 2.5",48.9007%
same,% inhibition Apol 90',"DRC-1, 90', conc 5",79.3077%
same,% inhibition Apol 90',"DRC-1, 90', conc 10",94.695%
same,% inhibition Apol 90',"DRC-1, 90', conc 20",95.5429%
same,% inhibition Apol 90',"DRC-1, 90', conc 40",94.7622%
same,% inhibition Apol 90',"DRC-1, 90', conc 80",94.048%
same,% inhibition apPOL 180',"DRC-1, conc 2.5",35.65%
same,% inhibition apPOL 180',"DRC-1, conc 5",71.3476%
same,% inhibition apPOL 180',"DRC-1, conc 10",94.4178%
same,% inhibition apPOL 180',"DRC-1, conc 20",96.2534%
same,% inhibition apPOL 180',"DRC-1, conc 40",95.7686%
same,% inhibition apPOL 180',"DRC-1, conc 80",95.2166%
same,% inhibition Apo pol 5',"DRC-2, 5', conc 2.5",48%
same,% inhibition Apo pol 5',"DRC-2, 5', conc 5",50%
same,% inhibition Apo pol 5',"DRC-2, 5', conc 10",53%
same,% inhibition Apo pol 5',"DRC-2, 5', conc 20",49%
same,% inhibition Apo pol 5',"DRC-2, 5', conc 40",49%
same,% inhibition Apo pol 5',"DRC-2, 5', conc 80",48%
same,% inhibition Apo pol 5',"DRC-2, 5', concentration 2.5",48%
same,% inhibition Apo pol 5',"DRC-2, 5', concentration 20",49%
same,% inhibition Apo pol 5',"DRC-2, 5', concentration 40",49%
same,% inhibition Apo pol 5',"DRC-2, 5', concentration 80",48%
same,% inhibition Apol 40',"DRC-2, 40', conc 2.5",44%
same,% inhibition Apol 40',"DRC-2, 40', conc 5",57%
same,% inhibition Apol 40',"DRC-2, 40', conc 10",70%
same,% inhibition Apol 40',"DRC-2, 40', conc 20",70%
same,% inhibition Apol 40',"DRC-2, 40', conc 40",69%
same,% inhibition Apol 40',"DRC-2, 40', conc 80",69%
same,% inhibition Apol 40',"DRC-2, 40', concentration 10",70%
same,% inhibition Apol 40',"DRC-2, 40', concentration 20",70%
same,% inhibition Apol 40',"DRC-2, 40', concentration 40",69%
same,% inhibition Apol 40',"DRC-2, 40', concentration 80",69%
same,% inhibition ApPOL 90',"DRC-2, 90', conc 2.5",40%
same,% inhibition ApPOL 90',"DRC-2, 90', conc 5",56%
same,% inhibition ApPOL 90',"DRC-2, 90', conc 10",74%
same,% inhibition ApPOL 90',"DRC-2, 90', conc 20",76%
same,% inhibition ApPOL 90',"DRC-2, 90', conc 40",75%
same,% inhibition ApPOL 90',"DRC-2, 90', conc 80",75%
same,% inhibition ApPOL 90',"DRC-2, 90', concentration 20",76%
same,% inhibition ApPOL 90',"DRC-2, 90', concentration 40",75%
same,% inhibition ApPOL 90',"DRC-2, 90', concentration 80",75%
same,% inhibition apPOL 180',"DRC-2, conc 2.5",25%
same,% inhibition apPOL 180',"DRC-2, conc 5",49%
same,% inhibition apPOL 180',"DRC-2, conc 10",76%
same,% inhibition apPOL 180',"DRC-2, conc 20",80%
same,% inhibition apPOL 180',"DRC-2, conc 40",80%
same,% inhibition apPOL 180',"DRC-2, conc 80",79%
same,% inhibition apPOL 180',"DRC-2, concentration 5",49%
same,% inhibition apPOL 180',"DRC-2, concentration 10",76%
same,% inhibition apPOL 180',"DRC-2, concentration 20",80%
same,% inhibition apPOL 180',"DRC-2, concentration 40",80%
same,DNA Pol,"primary screen value, ""DNA Pol""",102
NS(=O)(=O)c1ccc(NC(=O)c2ccc(N3C(=O)CCC3=O)cc2)cc1 [KU0025331],% inhibition Apo pol 10',"DRC-1, concentration 2.5",3.929%
same,% inhibition Apo pol 10',"DRC-1, concentration 5",17.6449%
same,% inhibition Apo pol 10',"DRC-1, concentration 10",35.7836%
same,% inhibition Apo pol 10',"DRC-1, concentration 20",51.7902%
same,% inhibition Apo pol 10',"DRC-1, concentration 40",82.955%
same,% inhibition Apo pol 10',"DRC-1, concentration 80",86.1018%
same,% inhibition Apol 90',"DRC-1, 90', concentration 2.5",-2.372%
same,% inhibition Apol 90',"DRC-1, 90', concentration 5",7.062%
same,% inhibition Apol 90',"DRC-1, 90', concentration 10",19.6888%
same,% inhibition Apol 90',"DRC-1, 90', concentration 20",33.4355%
same,% inhibition Apol 90',"DRC-1, 90', concentration 40",69.7509%
same,% inhibition Apol 90',"DRC-1, 90', concentration 80",83.6402%
same,% inhibition apPOL 180',"DRC-1, concentration 2.5",-7.42%
same,% inhibition apPOL 180',"DRC-1, concentration 5",-1.0806%
same,% inhibition apPOL 180',"DRC-1, concentration 10",6.657%
same,% inhibition apPOL 180',"DRC-1, concentration 20",15.4098%
same,% inhibition apPOL 180',"DRC-1, concentration 40",52.8887%
same,% inhibition apPOL 180',"DRC-1, concentration 80",79.9389%
same,% inhibition Apo pol 5',"DRC-2, 5', concentration 2.5 (unit not given)",8%
same,% inhibition Apol 40',"DRC-2, 40', concentration 2.5 (unit not given)",8%
same,% inhibition Apol 40',"DRC-2, 40', concentration 40 (unit not given)",67%
same,% inhibition ApPOL 90',"DRC-2, 90', concentration 80 (unit not given)",67%
same,% inhibition Apo pol 5',"DRC-2, 5', concentration 2.5",8%
same,% inhibition Apo pol 5',"DRC-2, 5', concentration 5",15%
same,% inhibition Apo pol 5',"DRC-2, 5', concentration 10",23%
same,% inhibition Apo pol 5',"DRC-2, 5', concentration 20",40%
same,% inhibition Apo pol 5',"DRC-2, 5', concentration 40",46%
same,% inhibition Apo pol 5',"DRC-2, 5', concentration 80",37%
same,% inhibition Apol 40',"DRC-2, 40', concentration 2.5",8%
same,% inhibition Apol 40',"DRC-2, 40', concentration 5",13%
same,% inhibition Apol 40',"DRC-2, 40', concentration 10",21%
same,% inhibition Apol 40',"DRC-2, 40', concentration 20",47%
same,% inhibition Apol 40',"DRC-2, 40', concentration 40",67%
same,% inhibition Apol 40',"DRC-2, 40', concentration 80",64%
same,% inhibition ApPOL 90',"DRC-2, 90', concentration 2.5",5.53%
same,% inhibition ApPOL 90',"DRC-2, 90', concentration 5",9%
same,% inhibition ApPOL 90',"DRC-2, 90', concentration 10",17%
same,% inhibition ApPOL 90',"DRC-2, 90', concentration 20",42%
same,% inhibition ApPOL 90',"DRC-2, 90', concentration 40",68%
same,% inhibition ApPOL 90',"DRC-2, 90', concentration 80",67%
same,% inhibition apPOL 180',"DRC-2, concentration 2.5",-4.26%
same,% inhibition apPOL 180',"DRC-2, concentration 5",-1.74%
same,% inhibition apPOL 180',"DRC-2, concentration 10",4.49%
same,% inhibition apPOL 180',"DRC-2, concentration 20",26%
same,% inhibition apPOL 180',"DRC-2, concentration 40",65%
same,% inhibition apPOL 180',"DRC-2, concentration 80",72%
same,DNA Pol,"primary screen value of the 186 hits, unit not given",32
same,DNA Pol,"primary screen value, head ""DNA Pol"", unit not given",32
O=C1c2ccccc2C(=O)N1Oc1ccc([N+](=O)[O-])c([N+](=O)[O-])c1 [Molecule 66],IC50,"supplemental file 2, sheet IC50 nontoxic compounds, Pf-apPOL",37 µM
